Literature values in patent US9283189B2, “Sustained-release preparation of ivabradine or pharmaceutically acceptable salts thereof” (Jiangsu Hengrui Medicine Co., Ltd., priority 2011, dated 2016).

Assays:
[1] = test system: chronic stable angina

- Influence on glucose or lipid metabolism ([1]; human, in vivo): no influence
- Rebound effect following the withdrawal of treatment ([1]; human, in vivo): no rebound effect
- Average plasma concentration at steady state (5 mg twice daily, CV=38%): 10 ng/mL
- Main half-life in plasma (70˜75% of the AUC): 2 h
- Maximum plasma concentration (chronic administration, 5 mg twice daily, CV=29%): 22 ng/mL
- Volume of distribution at steady state (in patients): ~100 L
- Effective half-life (in vivo): 11 h
- Plasma protein bound (in vivo): approximately 70%
- Renal clearance (in vivo): approximately 70 ml/min
- Total clearance (in vivo): about 400 ml/min
- Oral dose excreted unmetabolized in urine (in vivo, po): About 4%
- Time to peak plasma level (oral administration, fasting condition): about 1 hour
- Kinetics (dose proportionality) (oral dose range of 0.5 mg˜24 mg): linear
SMILES: COc1cc2c(cc1OC)CC(=O)N(CCCN(C)CC1Cc3cc(OC)c(OC)cc31)CC2 (centres unmarked) [Ivabradine]
- Angina attacks ([1]; 5 mg and 7.5 mg twice daily, patients with chronic stable angina): significant decrease
